For one assay, the system named is CHO. The experiment in a line: MTT cytotoxicity assay, CHO cells. Conditions: Cricetulus griseus, Chinese hamster ovarian cell line, means ± SDs of three independent experiments, read-out: IC50 ± SD, Non-Prostate Cells, CHO. It is filed as cell-based. How it is done:
(§1) All the cells were cultured as adherent monolayers in culture flasks, and were used to determine the anti-cancer efficacy of RP-010. DMEM supplemented with 4.5 g of glucose, 10% fetal bovine serum (FBS) and 1% penicillin/streptomycin, was used to augment cell growth. Finally, the cells were incubated and grown in a humidified incubator containing 5% CO2 at 37 °C [50]. […] Cells were obtained from frozen stocks and cell passaging (up to P4) was performed at 80% cell confluency, using PBS and trypsin + 2.2-mM EDTA.
(§2) MTT assays were used to determine the cytotoxicity of the RP compounds, to PC cell lines, as previously described.

The next assay concerns HCT116. On the set-up: method as in PMID 28759878. Particulars: colon cancer cell line; cited from earlier work.
For another assay, the system named is HCT115. Details: method as in PMID 28759878. Conditions: colon cancer cell line; cited from earlier work.
In assay [1] the test system is DU145. In words: DAPI staining of nuclear changes, DU145. It is filed as cell-based. The method, then: (§3) The nuclear changes in DU145 and PC-3 cells lines produced by RP-010 (1, 2 and 4 µM) incubation at 24 or 48 h were determined using DAPI staining. The cells were seeded on culture cover glasses in 6-well plates, and allowed to grow overnight. The cells were then incubated with RP-010, for an additional 24 h, at 37 °C. The incubated cells were fixed with 4% paraformaldehyde, followed by permeabilization with 1× PBS/0.3% Triton X-100 for 25 min. Finally, DAPI stain was added, and cells were photographed using the EVOS microscope.

The test system of assay [2] is PC-3. The experiment in a line: Cell cycle analysis (PI, flow cytometry), PC-3. Type of assay: cell-based. Conditions: 0.5, 1 or 2 µM. The method, then:
(§4) The effect of RP-010 on the cell cycle phases and function was determined using cell cycle analysis with PI staining, followed by flow cytometry. The cells were incubated with either vehicle or RP-010 (0.5, 1 or 2 µM) for 24 h. After incubation overnight, the cells were collected, washed and resuspended as an ice-cold PBS suspension. The DNA was stained with PI for at least 15 min on ice. A FACS Calibur flow cytometer from BD Biosciences (San Jose, CA, USA) was used to determine the distribution of the cells following incubation with vehicle or RP-010. Finally, the data were viewed and analysed using FlowJo v10.2 software from FlowJo LLC (Ashland, OR, USA).
Background: Flow cytometry measures light scatter and fluorescence of single cells or particles in a stream.

A further assay relates to CRL-1459. In words: MTT cytotoxicity assay, CRL-1459 normal colon epithelial cells. Type of assay: cell-based. Particulars: Homo sapiens, normal colon epithelial cell line, means ± SDs of three independent experiments, read-out: IC50 ± SD, Non-Prostate Cells, CRL-1459. The method, then:
as §1, §2
On the technique in general: Formazan colour is commonly taken as a measure of viable cells.

The subject of assay [3] is PC-3. In words: Colony formation assay, PC-3. Type of assay: cell-based. Conditions: 1 or 2 µM, vs vehicle, p < 0.01. The method, then:
This assay was performed as previously described. The DU145 and PC-3 cells were incubated with RP-010 (1 or 2 µM) for 24 h. […], the medium was discarded and cells were trypsinized with 0.25% trypsin, 2.21-mM EDTA, and then harvested, counted, and reseeded in 6-well plates at a low density (500 cell/well). The cells were allowed to form colonies for 10–14 days at 37 °C, with the medium being changed every other day. Subsequently, methanol was used to fix the colonies formed in each plate, followed by staining the colonies with 0.1% crystal violet dye for 30 min. Finally, colonies were viewed and counted under an EVOS microscope (Themo Fisher Scientific, Wayne, MI, USA). The colony formation rate equation was applied for each compound: Colony formation rate = the number of colonies/numbers of seeded cells × 100%.

For assay [4], the system named is PC-3. In words: Wound healing assay, PC-3. It is filed as cell-based. Conditions: 0.5, 1, 2 or 4 µM, 12-24 h, vs vehicle. How it is done: This assay was conducted using DU145 and PC-3 cells as previously described. Upon confluence, 200 μL sterile tips were used to create a wound by gently scratching the complete cell monolayer. Sterile PBS was used to wash the cells several times to remove any floating cells. Different concentrations of the test compound were prepared in the culture media and added immediately after wound formation. The closure of the wound was observed by taking pictures at different time points by the EVOS microscope (Thermo Fisher Scientific, Wayne, MI, USA). Finally, the area of the wounds, at different time points, was calculated using Image J software (NIH, Bethesda, MD, USA).

Assay [5] deals with PC-3. In words: DAPI staining of nuclear changes, PC-3. Conditions: 24 and 48 h. Type of assay: cell-based. The method, then:
as §3

Assay [6] concerns DU145. The experiment in a line: Cell cycle analysis (PI, flow cytometry), DU145. Particulars: vs vehicle. Type of assay: cell-based. The method, then:
as §4

In assay [7] the test system is PC-3. The experiment in a line: Transwell migration assay, PC-3. It is filed as cell-based. Particulars: 24 h. How it is done: The assay was done as previously described. The effect of RP-010, (0.5, 1 or 2 µM) on the migration of PC cells was tested using 24 trans-well inserts with an […] pore size. The addition of the insert to the well forms two chambers (upper and lower), where the upper chamber was used to grow the cells on the porous membrane. The lower chamber was filled with 600-μL cell-free DMEM medium. 200-μL of the cell suspension was added to each insert, and cells allowed to attach for 1 h. The test compound was added in different concentrations and incubated with the cells for 24 h. […] Finally, the remaining migrated cells were fixed by methanol, and stained with 0.1% crystal violet dye and counted with an EVOS microscope. The number of migrated cells was counted for the cultures incubated with vehicle or RP-010.

The IC50 is the midpoint of a concentration-inhibition curve.

For `COc1ccc(-c2nc3sc4c(c3c(=O)[nH]2)CCCC4)cc1` [RP10], the IC50 with CHO was 14 ± 1.3 µM; in the assay with HCT116 it was 0.6 ± 0.3 µM; in the assay on HCT115, 0.7 ± 0.2 µM; in the assay on CRL-1459, 73 ± 5.3 µM. Besides, the “Nuclear morphology (DAPI)” value in the assay with DU145 [1] (1 µM, 24 h) is given as “produced multinucleated cells”; with DU145 [1] (1, 2 or 4 µM, 48 h), “primarily produced early stage apoptotic nuclear morphology”; in the assay on DU145 [1] (2 or 4 µM, 24 h), “significantly increased numbers of highly condensed, fragmented nuclear chromatin”; with PC-3 [5] (1 µM) it was “significant increase in multinucleated cells”; in the assay with PC-3 [5] (2 or 4 μM), “apoptosis”. In addition, in the assay with PC-3 [2], the “Percentage of cells in G1” value was “significant decrease”. In addition, the “Percentage of cells in the G2 phase” value in the assay on PC-3 [2] is “significant increase”. Also, in the assay on PC-3 [3], the Colony formation rate result is “significantly decreased”. For the same compound, the “Wound healing (cell migration)” value in the assay on PC-3 [4] is recorded as “significantly decreasing wound healing”. In addition, the “Cell cycle distribution, G1 phase” value in the assay on DU145 [6] (0.5, 1 or 2 µM) was “significant shift from G1 phase”. Further, the “Cell cycle distribution, G2 phase” value in the assay on DU145 [6] (1 or 2 µM, p < 0.05) was “significantly accumulated in the G2 phase”. Besides, the Transwell migration entry is “not significantly altered” in the assay with PC-3 [7] (0.5 μM) and “significantly decreased” in the assay with PC-3 [7] (1 or 2 μM, p < 0.05).

Source of the values: PMC6563099, “Novel Thienopyrimidine Derivative, RP-010, Induces β-Catenin Fragmentation and Is Efficacious against Prostate Cancer Cells” (Cancers, 2019).
